Results from paper PMC8247983 (Chemmedchem, 2021).
pIC50: −log10 of the molar value.

Biological target: hBChE (Homo sapiens, UniProt P06276)
Experiment: Ellman's assay
Type: biochemical

Chain of hBChE (P06276 29-602): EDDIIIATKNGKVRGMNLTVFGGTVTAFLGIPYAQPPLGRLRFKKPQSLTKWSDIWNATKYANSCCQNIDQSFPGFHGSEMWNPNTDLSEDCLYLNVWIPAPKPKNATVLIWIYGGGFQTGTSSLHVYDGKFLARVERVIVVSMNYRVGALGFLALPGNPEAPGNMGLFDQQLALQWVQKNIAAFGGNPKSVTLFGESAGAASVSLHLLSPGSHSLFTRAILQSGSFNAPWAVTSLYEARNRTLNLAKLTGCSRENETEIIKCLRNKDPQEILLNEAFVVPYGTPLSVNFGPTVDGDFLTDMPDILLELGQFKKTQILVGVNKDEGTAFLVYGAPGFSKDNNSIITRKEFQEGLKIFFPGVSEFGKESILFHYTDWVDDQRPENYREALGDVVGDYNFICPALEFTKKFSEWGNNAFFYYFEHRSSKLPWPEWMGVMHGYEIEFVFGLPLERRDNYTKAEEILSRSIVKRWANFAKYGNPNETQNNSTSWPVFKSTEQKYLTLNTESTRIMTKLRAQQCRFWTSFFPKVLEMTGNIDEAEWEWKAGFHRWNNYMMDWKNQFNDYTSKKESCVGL

With CN1c2ccc(OC(=O)NCCCCCCN3CCOC(CF)C3)cc2CN2CCc3ccccc3C21 (racemic) [compound 2, 13‐Methyl‐5,8,13,13a‐tetrahydro‐6H‐isoquinolino[1,2‐b]quinazolin‐10‐yl‐{6‐[2‐(fluoromethyl)morpholino]‐hexyl}carbamate] the pIC50 was 7.18.
